Test results as given in ChEMBL document CHEMBL1150713, “Bioactive stilbenes of Scirpus maritimus” (J Nat Prod, 1987).
In brackets after ≈: the same amount, converted by molar mass.

How the values were obtained:
[1] = test system: Agrobacterium tumefaciens; assay: Antitumor activity against Agrobacterium tumefaciens-induced crown gall tumor assessed as tumor inhibition in potato tubers by potato disk assay relative to control; assay type: functional
[2] = test system: Spodoptera frugiperda; assay: Antifeedant activity against Spodoptera frugiperda assessed as feeding ratio for 5 seconds; assay type: functional
[3] = Cytotoxicity against mouse 3PS cells xenografted in mouse at 35 mg/kg relative to control; assay type: functional
[4] = Toxicity in Artemia salina; assay type: organism-based; conditions: in vivo
[5] = Cytotoxicity against mouse 3PS cells xenografted in mouse at 37 mg/kg relative to control; assay type: functional
[6] = test system: Agrobacterium tumefaciens; assay: Effect on Agrobacterium tumefaciens-induced crown gall tumor in potato tubers by potato disk assay relative to control; assay type: functional
[7] = Cytotoxicity against mouse 3PS cells xenografted in mouse at 30 mg/kg relative to control; assay type: functional
[8] = Cytotoxicity against mouse 3PS cells xenografted in mouse at 18 mg/kg relative to control; assay type: functional

SMILES	inhibition (INH) [1] [%]	Ratio [2]	T/C [3] [%]	LC50 [4] [µg/mL]	T/C [5] [%]	Activity [6] [%]	T/C [7] [%]	T/C [8] [%]
Oc1cc(O)cc(/C=C/c2ccc(O)c(O)c2)c1 [PICEATANNOL]	17	0.38	131	278 (≈ 1140 µM)	–	–	–	–
Oc1ccc(/C=C/c2cc(O)cc(O)c2)cc1 [RESVERATROL]	–	–	–	–	100	39	–	–
Oc1ccc(/C=C/c2cc(O)cc3c2[C@H](c2cc(O)cc(O)c2)[C@@H](c2ccc(O)c(O)c2)O3)cc1 [SCIRPUSIN A]	–	1	–	488 (≈ 1040 µM)	–	17	103	–
Oc1cc(O)cc(C2c3c(/C=C/c4ccc(O)c(O)c4)cc(O)cc3OC2c2ccc(O)c(O)c2)c1 (centres undefined) [SCIRPUSIN B]	40	0.23	–	389 (≈ 800 µM)	–	–	–	99
